± gives the uncertainty stated by the source.
Experiment: xn = mol fraction of the nth substance listed

`COC(=O)OC` + CCCCO gave a viscosity (293.15 K, 101 kPa, x1 = 0.05212) of 2.427 mPa·s, a viscosity (293.15 K, 101 kPa, x1 = 0.09994) of 2.071 mPa·s and a viscosity (293.15 K, 101 kPa, x1 = 0.191) of 1.611 mPa·s. For the same molecule, the viscosity (293.15 K, 101 kPa, x1 = 0.2904) was 1.291 mPa·s, the viscosity (293.15 K, 101 kPa, x1 = 0.4109) was 1.029 mPa·s and the viscosity (293.15 K, 101 kPa, x1 = 0.4555) was 0.957 mPa·s. The viscosity (293.15 K, 101 kPa, x1 = 0.6133) was 0.775 mPa·s, the viscosity (293.15 K, 101 kPa, x1 = 0.7008) was 0.71 mPa·s and the viscosity (293.15 K, 101 kPa, x1 = 0.8063) was 0.656 mPa·s. The viscosity (293.15 K, 101 kPa, x1 = 0.907) was 0.63 mPa·s, the viscosity (293.15 K, 101 kPa, x1 = 0.9512) was 0.636 mPa·s and the viscosity (293.15 K, 101.3 kPa, x1 = 0.0518) was 2.461 ± 0.11 mPa·s. It also gave a viscosity (293.15 K, 101.3 kPa, x1 = 0.0975) of 2.119 ± 0.097 mPa·s, a viscosity (293.15 K, 101.3 kPa, x1 = 0.1961) of 1.586 ± 0.074 mPa·s and a viscosity (293.15 K, 101.3 kPa, x1 = 0.3064) of 1.218 ± 0.059 mPa·s. It also gave a viscosity (293.15 K, 101.3 kPa, x1 = 0.4108) of 1.023 ± 0.05 mPa·s, a viscosity (293.15 K, 101.3 kPa, x1 = 0.4769) of 0.929 ± 0.046 mPa·s and a viscosity (293.15 K, 101.3 kPa, x1 = 0.6101) of 0.794 ± 0.041 mPa·s. The viscosity (293.15 K, 101.3 kPa, x1 = 0.7043) was 0.719 ± 0.037 mPa·s, the viscosity (293.15 K, 101.3 kPa, x1 = 0.8043) was 0.644 ± 0.034 mPa·s and the viscosity (293.15 K, 101.3 kPa, x1 = 0.9052) was 0.607 ± 0.033 mPa·s. For the same molecule, the viscosity (293.15 K, 101.3 kPa, x1 = 0.9508) was 0.605 ± 0.032 mPa·s, the viscosity (298.15 K, 101.3 kPa, x1 = 0.0527) was 2.192 ± 0.1 mPa·s and the viscosity (298.15 K, 101.3 kPa, x1 = 0.1009) was 1.877 ± 0.087 mPa·s. The viscosity (298.15 K, 101.3 kPa, x1 = 0.2002) was 1.411 ± 0.067 mPa·s, the viscosity (298.15 K, 101.3 kPa, x1 = 0.2986) was 1.127 ± 0.055 mPa·s and the viscosity (298.15 K, 101.3 kPa, x1 = 0.3974) was 0.952 ± 0.047 mPa·s. The viscosity (298.15 K, 101.3 kPa, x1 = 0.5039) was 0.831 ± 0.042 mPa·s, the viscosity (298.15 K, 101.3 kPa, x1 = 0.6008) was 0.748 ± 0.039 mPa·s and the viscosity (298.15 K, 101.3 kPa, x1 = 0.7028) was 0.673 ± 0.035 mPa·s. For the same molecule, the viscosity (298.15 K, 101.3 kPa, x1 = 0.8011) was 0.611 ± 0.033 mPa·s, the viscosity (298.15 K, 101.3 kPa, x1 = 0.8965) was 0.572 ± 0.031 mPa·s and the viscosity (298.15 K, 101.3 kPa, x1 = 0.9503) was 0.569 ± 0.031 mPa·s. For the same molecule, the viscosity (303.15 K, 101 kPa, x1 = 0.0494) was 1.938 mPa·s, the viscosity (303.15 K, 101 kPa, x1 = 0.1058) was 1.648 mPa·s and the viscosity (303.15 K, 101 kPa, x1 = 0.2154) was 1.256 mPa·s. The viscosity (303.15 K, 101 kPa, x1 = 0.2915) was 1.077 mPa·s, the viscosity (303.15 K, 101 kPa, x1 = 0.4086) was 0.882 mPa·s and the viscosity (303.15 K, 101 kPa, x1 = 0.5007) was 0.769 mPa·s. It also gave a viscosity (303.15 K, 101 kPa, x1 = 0.5847) of 0.697 mPa·s, a viscosity (303.15 K, 101 kPa, x1 = 0.7003) of 0.622 mPa·s and a viscosity (303.15 K, 101 kPa, x1 = 0.798) of 0.581 mPa·s. It also gave a viscosity (303.15 K, 101 kPa, x1 = 0.9065) of 0.553 mPa·s, a viscosity (303.15 K, 101 kPa, x1 = 0.9587) of 0.551 mPa·s and a viscosity (303.15 K, 101.3 kPa, x1 = 0.0249) of 2.078 ± 0.095 mPa·s. The viscosity (303.15 K, 101.3 kPa, x1 = 0.096) was 1.666 ± 0.078 mPa·s, the viscosity (303.15 K, 101.3 kPa, x1 = 0.1911) was 1.304 ± 0.062 mPa·s and the viscosity (303.15 K, 101.3 kPa, x1 = 0.2998) was 1.046 ± 0.051 mPa·s. For the same molecule, the viscosity (303.15 K, 101.3 kPa, x1 = 0.3877) was 0.903 ± 0.045 mPa·s, the viscosity (303.15 K, 101.3 kPa, x1 = 0.4799) was 0.787 ± 0.04 mPa·s and the viscosity (303.15 K, 101.3 kPa, x1 = 0.5865) was 0.681 ± 0.036 mPa·s. It also gave a viscosity (303.15 K, 101.3 kPa, x1 = 0.6907) of 0.608 ± 0.033 mPa·s, a viscosity (303.15 K, 101.3 kPa, x1 = 0.7931) of 0.564 ± 0.031 mPa·s and a viscosity (303.15 K, 101.3 kPa, x1 = 0.8925) of 0.547 ± 0.03 mPa·s. It also gave a viscosity (303.15 K, 101.3 kPa, x1 = 0.9464) of 0.542 ± 0.03 mPa·s, a viscosity (313.15 K, 101 kPa, x1 = 0.04725) of 1.542 mPa·s and a viscosity (313.15 K, 101 kPa, x1 = 0.1216) of 1.252 mPa·s. For the same molecule, the viscosity (313.15 K, 101 kPa, x1 = 0.2016) was 1.027 mPa·s, the viscosity (313.15 K, 101 kPa, x1 = 0.2876) was 0.857 mPa·s and the viscosity (313.15 K, 101 kPa, x1 = 0.3956) was 0.712 mPa·s. For the same molecule, the viscosity (313.15 K, 101 kPa, x1 = 0.414) was 0.693 mPa·s, the viscosity (313.15 K, 101 kPa, x1 = 0.6043) was 0.552 mPa·s and the viscosity (313.15 K, 101 kPa, x1 = 0.6975) was 0.511 mPa·s. The viscosity (313.15 K, 101 kPa, x1 = 0.8019) was 0.484 mPa·s, the viscosity (313.15 K, 101 kPa, x1 = 0.9062) was 0.477 mPa·s and the viscosity (313.15 K, 101 kPa, x1 = 0.9368) was 0.479 mPa·s. The viscosity (313.15 K, 101.3 kPa, x1 = 0.0499) was 1.536 ± 0.072 mPa·s, the viscosity (313.15 K, 101.3 kPa, x1 = 0.0998) was 1.351 ± 0.064 mPa·s and the viscosity (313.15 K, 101.3 kPa, x1 = 0.2234) was 1.018 ± 0.05 mPa·s. The viscosity (313.15 K, 101.3 kPa, x1 = 0.3) was 0.88 ± 0.044 mPa·s, the viscosity (313.15 K, 101.3 kPa, x1 = 0.3991) was 0.752 ± 0.039 mPa·s and the viscosity (313.15 K, 101.3 kPa, x1 = 0.5054) was 0.662 ± 0.035 mPa·s. The viscosity (313.15 K, 101.3 kPa, x1 = 0.603) was 0.598 ± 0.032 mPa·s, the viscosity (313.15 K, 101.3 kPa, x1 = 0.6904) was 0.557 ± 0.03 mPa·s and the viscosity (313.15 K, 101.3 kPa, x1 = 0.8009) was 0.52 ± 0.029 mPa·s. For the same molecule, the viscosity (313.15 K, 101.3 kPa, x1 = 0.9014) was 0.497 ± 0.028 mPa·s and the viscosity (313.15 K, 101.3 kPa, x1 = 0.9471) was 0.494 ± 0.028 mPa·s.
